Source: patent US9828349B2, “1-aryl-1-hydroxy-2,3-diamino-propyl amines, 1-heteroaryl-1-hydroxy-2,3-diamino-propyl amines and related compounds having analgesic and/or immuno stimulant activity” (Allergan, Inc., priority 2005, dated 2017)

Experiments:
[1] = tested on: tactile allodynia (Chung model); experiment: Chung model: reversal of tactile allodynia after spinal nerve ligation (von Frey hairs); format: in vivo; conditions: highest % allodynia reversal out of 15, 30, 60 min post-drug, rat
Excerpt: An art-accepted model or assay for measuring an analgesic effect of a compound in chronic pain (in particular peripheral neuropathy) is the model known as Kim and Chung 1992, Pain […], pp 355-363 (Chung model). This model involves the surgical ligation of the L5 (and optionally the L6) spinal nerves on one side in experimental animals. Rats recovering from the surgery gain weight and display a level of general activity similar to that of normal rats. However, these rats develop abnormalities of the foot, wherein the hindpaw is moderately everted and the toes are held together. More importantly, the hindpaw on the side affected by the surgery appears to become sensitive to low-threshold mechanical stimuli and will perceive pain instead of the faint sensation of touch. This sensitivity to normally non-painful touch, called “tactile allodynia”, develops within the first week after surgery and lasts for at least two months. The allodynia response includes lifting the affected hindpaw to escape from the stimulus, licking the paw and holding it in the air for many seconds. None of these responses is normally seen in the control group.
To produce the tactile allodynia, rats are anesthetized before surgery. The surgical site is shaved and prepared either with betadine or Novacaine. Incision is made from the thoracic vertebra XIII down toward the sacrum. Muscle tissue is separated from the spinal vertebra (left side) at the L4-S2 levels. […]
Tactile allodynia is assessed via von Frey hairs, which are a series of fine hairs with incremental differences in stiffness. […] The applied force has been calculated to range from 0.41 to 15.1 grams. […] The 50% paw withdrawal threshold is determined using the method of Dixon, W. J., Ann. […] Tactile allodynia is measured prior to and 15, 30, and 60 minutes after drug administration. The post-drug threshold is compared to the pre-drug threshold and the percent reversal of tactile sensitivity is calculated based on a normal threshold of 15.1 grams. […]

GlcCer synthase = target: T1, GlcCer synthase (Homo sapiens, UniProt Q16739); conditions: cited from earlier work
T1 sequence (Q16739 1-394): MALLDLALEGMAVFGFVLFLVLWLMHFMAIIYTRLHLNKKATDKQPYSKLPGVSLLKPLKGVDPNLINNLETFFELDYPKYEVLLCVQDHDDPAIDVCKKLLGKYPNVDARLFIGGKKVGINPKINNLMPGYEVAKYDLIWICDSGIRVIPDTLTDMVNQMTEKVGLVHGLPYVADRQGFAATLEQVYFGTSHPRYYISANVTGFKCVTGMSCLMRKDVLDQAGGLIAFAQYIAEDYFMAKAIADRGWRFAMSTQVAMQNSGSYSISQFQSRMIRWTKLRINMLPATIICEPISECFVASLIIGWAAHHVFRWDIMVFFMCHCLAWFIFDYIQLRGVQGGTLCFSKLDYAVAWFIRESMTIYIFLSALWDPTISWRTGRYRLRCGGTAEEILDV

[2] = tested on: spatial memory deficit after transient forebrain ischemia; conditions: treatment after transient forebrain ischemia in rats; cited from earlier work

Compound: N[C@@H](CN1CCCC1)[C@@H](O)c1ccncc1 (racemic) [Compound 46, DL-threo-2-amino-1-(pyridin-4-yl)-3-(pyrrolidin-1-yl)propan-1-ol]
- Peak % Pain reversal ([1]; 30 μg/kg IP): 96%

Compound: Cl.O=C(N[C@@H](CN1CCOCC1)[C@@H](O)c1ccccc1)OCc1ccccc1 [Compound 1, benzyl L-threo-1-hydroxy-3-morpholino-1-phenylpropan-2-ylcarbamate hydrochloride]
- Peak % Pain reversal ([1]; 300 μg/kg IP): 44%

Compound: CC(=O)O[C@@H](c1ccccc1)[C@H](CN1CCOCC1)NC(=O)OCc1ccccc1.Cl [Compound 3, benzyl L-threo-1-acetoxy-3-morpholino-1-phenylpropan-2-ylcarbamate hydrochloride]
- Peak % Pain reversal ([1]; 300 μg/kg IP): 92%

Compound: CCCCCCCCCCCCCCCC(=O)N[C@H](CN1CCCC1)[C@H](O)c1ccc(O)cc1 [D-threo-4′-hydroxy-P4]
- inhibition of GCS (glucosylceramide synthase) (GlcCer synthase): one of the most potent inhibitor of GCS

Compound: CCCCCCCCCC(=O)N[C@@H](CN1CCOCC1)[C@@H](O)c1ccccc1 [L-threo-PDMP, (1S,2S)-1-phenyl-2-decanoylamino-3-morpholino-1-propanol]
- deficit of a well learned spatial memory (8-arm maze task) [2]: ameliorated the deficit of a well learned spatial memory

Compound: O=C(N[C@H](CN1CCCC1)[C@H](O)c1ccccc1)OCc1ccccc1 [PBPP, D-threo-1-phenyl-2-benzyloxycarbonylamino-3-pyrrolidino-1-propanol]
- inhibition of GCS (glucosylceramide synthase) (GlcCer synthase): potent GCS inhibitor
